Results published in ChEMBL document CHEMBL1921776, “Synthesis and biological activity of acetyl-protected hydroxybenzyl diethyl phosphates (EHBP) as potential chemotherapeutic agents” (Bioorg Med Chem Lett, 2011).
pIC50: −log10 of the molar value. The source made the active and inactive calls. The calls are words filed in the database; no cut-off is given here.

Legend:
[1] = system: HT-29; assay: Induction of apoptosis in human HT-29 cells at 100 uM after 24 hrs using annexin V-FITC and propidium iodide staining by flow cytometry; type: functional
[2] = system: BXPC-3; assay: Cytotoxicity against human BxPC3 cells assessed as growth inhibition after 24 hrs by MTT assay; type: functional, cell-based; details: BXPC-3, 24 h
[3] = system: HT-29; assay: Induction of apoptosis in human HT-29 cells at 300 uM after 24 hrs using annexin V-FITC and propidium iodide staining by flow cytometry; type: functional
[4] = system: HT-29; assay: Cell cycle arrest in human HT-29 cells assessed as increase in S phase at 100 to 300 uM after 24 hrs using propidium iodide staining-based flow cytometry; type: functional
[5] = system: HT-29; assay: Cell cycle arrest in human HT-29 cells assessed as increase in G2/M phase after 24 hrs using propidium iodide staining-based flow cytometry; type: functional
[6] = system: HT-29; assay: Cytotoxicity against human HT-29 cells assessed as growth inhibition after 24 hrs by MTT assay; type: functional, cell-based; details: HT-29, 24 h
[7] = system: HT-29; assay: Cell cycle arrest in human HT-29 cells assessed as reduction in G0/G1 phase after 24 hrs using propidium iodide staining-based flow cytometry; type: functional
[8] = system: MCF7; assay: Cytotoxicity against human MCF7 cells assessed as growth inhibition after 24 hrs by MTT assay; type: functional, cell-based; details: MCF7, 24 h
[9] = system: HT-29; assay: Cell cycle arrest in human HT-29 cells assessed as increase in G2/M phase at 100 to 300 uM after 24 hrs using propidium iodide staining-based flow cytometry; type: functional
[10] = system: HT-29; assay: Antiproliferative activity against human HT-29 cells assessed as decrease of PCNA expression after 24 hrs by ELISA; type: functional, cell-based
[11] = system: HT-29; assay: Cell cycle arrest in human HT-29 cells assessed as reduction in G0/G1 phase at 100 to 300 uM after 24 hrs using propidium iodide staining-based flow cytometry; type: functional
[12] = system: Jurkat; assay: Cytotoxicity against human Jurkat cells assessed as growth inhibition after 24 hrs by MTT assay; type: functional, cell-based
[13] = system: HT-29; assay: Cell cycle arrest in human HT-29 cells assessed as accumulation of cells at G0/G1 phase at 3 uM after 24 hrs using propidium iodide staining-based flow cytometry (reference value: 74.8%); type: functional
[14] = system: HT-29; assay: Cell cycle arrest in human HT-29 cells assessed as accumulation of cells at S phase at 10 uM after 24 hrs using propidium iodide staining-based flow cytometry (reference value: 19.4%); type: functional
[15] = system: HT-29; assay: Induction of apoptosis in human HT-29 cells after 24 hrs using annexin V-FITC and propidium iodide staining by flow cytometry; type: functional, cell-based
[16] = system: HT-29; assay: Induction of apoptosis in human HT-29 cells at 50 uM after 24 hrs using annexin V-FITC and propidium iodide staining by flow cytometry; type: functional
[17] = system: HT-29; assay: Cell cycle arrest in human HT-29 cells assessed as accumulation of cells at G2/M phase at 3 uM after 24 hrs using propidium iodide staining-based flow cytometry (reference value: 5.8%); type: functional
[18] = system: HT-29; assay: Cell cycle arrest in human HT-29 cells assessed as accumulation of cells at S phase at 3 uM after 24 hrs using propidium iodide staining-based flow cytometry (reference value: 19.4%); type: functional
[19] = system: MIA PaCa-2; assay: Ratio of p-NO-ASA IC50 to compound IC50 for human MIAPaCa2 cells assessed as growth inhibition after 48 hrs by trypan blue assay; type: functional
[20] = system: BXPC-3; assay: Ratio of p-NO-ASA IC50 to compound IC50 for human BxPC3 cells assessed as growth inhibition after 48 hrs by trypan blue assay; type: functional
[21] = system: SCC-25; assay: Ratio of p-NO-ASA IC50 to compound IC50 for human SCC25 cells assessed as growth inhibition after 48 hrs by trypan blue assay; type: functional
[22] = system: HT-29; assay: Cell cycle arrest in human HT-29 cells assessed as accumulation of cells at G2/M phase at 10 uM after 24 hrs using propidium iodide staining-based flow cytometry (reference value: 5.8%); type: functional
[23] = system: HT-29; assay: Ratio of p-NO-ASA IC50 to compound IC50 for human HT-29 cells assessed as growth inhibition after 48 hrs by trypan blue assay; type: functional
[24] = system: HCT-15; assay: Ratio of p-NO-ASA IC50 to compound IC50 for human HCT15 cells assessed as growth inhibition after 48 hrs by trypan blue assay; type: functional
[25] = system: HT-29; assay: Cell cycle arrest in human HT-29 cells assessed as accumulation of cells at G0/G1 phase at 10 uM after 24 hrs using propidium iodide staining-based flow cytometry (reference value: 74.8%); type: functional
[26] = system: LNCaP; assay: Ratio of p-NO-ASA IC50 to compound IC50 for human LNCAP cells assessed as growth inhibition after 48 hrs by trypan blue assay; type: functional
[27] = system: HT-29; assay: Induction of apoptosis in human HT-29 cells at 10 uM after 24 hrs using annexin V-FITC and propidium iodide staining by flow cytometry; type: functional
[28] = system: A549; assay: Ratio of p-NO-ASA IC50 to compound IC50 for human A549 cells assessed as growth inhibition after 48 hrs by trypan blue assay; type: functional
[29] = system: SCC-25; assay: Cytotoxicity against human SCC25 cells assessed as growth inhibition after 48 hrs by trypan blue assay; type: functional, cell-based; details: SCC-25, 48 h
[30] = system: A549; assay: Cytotoxicity against human A549 cells assessed as growth inhibition after 48 hrs by trypan blue assay; type: functional, cell-based; details: A549, 48 h
[31] = system: HT-29; assay: Cytotoxicity against human HT-29 cells assessed as growth inhibition after 48 hrs by trypan blue assay; type: functional, cell-based; details: HT-29, 48 h
[32] = system: BXPC-3; assay: Cytotoxicity against human BxPC3 cells assessed as growth inhibition after 48 hrs by trypan blue assay; type: functional, cell-based; details: BXPC-3, 48 h
[33] = system: MIA PaCa-2; assay: Cytotoxicity against human MIAPaCa2 cells assessed as growth inhibition after 48 hrs by trypan blue assay; type: functional, cell-based; details: MIA PaCa-2, 48 h
[34] = system: LNCaP; assay: Cytotoxicity against human LNCAP cells assessed as growth inhibition after 48 hrs by trypan blue assay; type: functional, cell-based
[35] = system: HCT-15; assay: Cytotoxicity against human HCT15 cells assessed as growth inhibition after 48 hrs by trypan blue assay; type: functional, cell-based; details: HCT-15, 48 h

## CCOP(=O)(OCC)OCc1cccc(OC(C)=O)c1
[1]
  Activity: 19%
[2]
  pIC50: 3.79
[3]
  Activity: 79%
[4]
  Activity: Active
[5]
  Activity: Active
[6]
  pIC50: 3.56
[7]
  Activity: Dose-dependent effect
[8]
  pIC50: 3.67
[9]
  Activity: Active
[10]
  Activity: Dose-dependent effect
[11]
  Activity: Active
[12]
  pIC50: 3.35

## CCOP(=O)(OCC)OCc1ccccc1OC(C)=O
[2]
  pIC50: 3.81
[6]
  pIC50: 4.08
[8]
  pIC50: 4.20
[12]
  pIC50: 3.96

## CCOP(=O)(OCC)OCc1ccc(OC(C)=O)c(C)c1
[2]
  pIC50: 6.55
[6]
  pIC50: 6.51
[8]
  pIC50: 6.49
[12]
  pIC50: 6.54

## CCOP(=O)(OCC)OCc1ccc(OC(C)=O)c(Cl)c1
[2]
  pIC50: 6.19
[6]
  pIC50: 5.89
[8]
  pIC50: 6.15
[12]
  pIC50: 6.17

## CCOP(=O)(OCC)OCc1ccc(OC(C)=O)cc1
[2]
  pIC50: 6.17
[5]
  Activity: Active
[13]
  Activity: 53.2%
[14]
  Activity: 40.8%
[6]
  pIC50: 6.09
[15]
  Activity: Dose-dependent effect
[16]
  Activity: 79%
[7]
  Activity: Dose-dependent effect
[17]
  Activity: 9.6%
[8]
  pIC50: 6.17
[18]
  Activity: 38.2%
[19]
  Ratio IC50: 17
[20]
  Ratio IC50: 17
[21]
  Ratio IC50: 17
[22]
  Activity: 16.3%
[23]
  Ratio IC50: 17
[24]
  Ratio IC50: 17
[25]
  Activity: 42.9%
[26]
  Ratio IC50: 17
[10]
  Activity: Dose-dependent effect
[12]
  pIC50: 6.19
[27]
  Activity: 25%
[28]
  Ratio IC50: 17

## CC(=O)Oc1ccccc1C(=O)Oc1ccc(CO[N+](=O)[O-])cc1
[29]
  pIC50: 5.00
[30]
  pIC50: 5.00
[31]
  pIC50: 5.00
[32]
  pIC50: 5.00
[33]
  pIC50: 5.00
[34]
  pIC50: 5.00
[35]
  pIC50: 5.00
